Measurements published in patent US11324708B1 (UNION therapeutics A/S, priority 2020, dated 2022).

Experiments:
SARS-CoV-2 = SARS-CoV-2 in Vero E6 cells; cited from earlier work
[1] = oral 2 g/day dose
in vivo = settings: sheep
all targeted strains = experiment: Minimum Inhibitory Concentration (MIC) assay, all targeted strains; settings: read-out: MIC against all targeted strains
TMEM16A = target: T1, TMEM16A (Homo sapiens, UniProt Q5XXA6); settings: cited from earlier work
T1 sequence (Q5XXA6 1-986): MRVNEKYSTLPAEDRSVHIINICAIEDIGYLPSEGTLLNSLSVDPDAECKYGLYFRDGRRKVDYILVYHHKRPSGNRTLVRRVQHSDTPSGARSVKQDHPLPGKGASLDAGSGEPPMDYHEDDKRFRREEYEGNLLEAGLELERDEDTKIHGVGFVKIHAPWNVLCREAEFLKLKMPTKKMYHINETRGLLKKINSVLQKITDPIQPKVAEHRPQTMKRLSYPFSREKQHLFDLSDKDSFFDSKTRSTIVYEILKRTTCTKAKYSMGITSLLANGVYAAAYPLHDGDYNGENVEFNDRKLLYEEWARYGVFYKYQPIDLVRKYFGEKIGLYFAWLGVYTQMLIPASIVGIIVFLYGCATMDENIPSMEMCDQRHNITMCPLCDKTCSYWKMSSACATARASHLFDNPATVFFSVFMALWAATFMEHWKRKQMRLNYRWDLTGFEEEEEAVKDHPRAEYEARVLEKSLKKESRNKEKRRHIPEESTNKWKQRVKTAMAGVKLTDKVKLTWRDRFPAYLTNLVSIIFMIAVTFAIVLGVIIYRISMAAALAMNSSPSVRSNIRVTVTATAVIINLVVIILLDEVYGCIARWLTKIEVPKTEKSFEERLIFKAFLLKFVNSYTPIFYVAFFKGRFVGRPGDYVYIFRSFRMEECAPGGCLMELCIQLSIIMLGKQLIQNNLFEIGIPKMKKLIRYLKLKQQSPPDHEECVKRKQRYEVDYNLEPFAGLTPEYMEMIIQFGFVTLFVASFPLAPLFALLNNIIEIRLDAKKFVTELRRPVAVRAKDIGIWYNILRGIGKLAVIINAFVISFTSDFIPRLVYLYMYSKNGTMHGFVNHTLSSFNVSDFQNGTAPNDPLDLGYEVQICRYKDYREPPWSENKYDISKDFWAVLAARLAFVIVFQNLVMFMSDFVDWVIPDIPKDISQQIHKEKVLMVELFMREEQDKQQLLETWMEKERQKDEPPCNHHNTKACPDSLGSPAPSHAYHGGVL

TMEM 116F = target: T2, TMEM 116F (Homo sapiens, UniProt Q4KMQ2); settings: cited from earlier work
T2 sequence (Q4KMQ2 1-910): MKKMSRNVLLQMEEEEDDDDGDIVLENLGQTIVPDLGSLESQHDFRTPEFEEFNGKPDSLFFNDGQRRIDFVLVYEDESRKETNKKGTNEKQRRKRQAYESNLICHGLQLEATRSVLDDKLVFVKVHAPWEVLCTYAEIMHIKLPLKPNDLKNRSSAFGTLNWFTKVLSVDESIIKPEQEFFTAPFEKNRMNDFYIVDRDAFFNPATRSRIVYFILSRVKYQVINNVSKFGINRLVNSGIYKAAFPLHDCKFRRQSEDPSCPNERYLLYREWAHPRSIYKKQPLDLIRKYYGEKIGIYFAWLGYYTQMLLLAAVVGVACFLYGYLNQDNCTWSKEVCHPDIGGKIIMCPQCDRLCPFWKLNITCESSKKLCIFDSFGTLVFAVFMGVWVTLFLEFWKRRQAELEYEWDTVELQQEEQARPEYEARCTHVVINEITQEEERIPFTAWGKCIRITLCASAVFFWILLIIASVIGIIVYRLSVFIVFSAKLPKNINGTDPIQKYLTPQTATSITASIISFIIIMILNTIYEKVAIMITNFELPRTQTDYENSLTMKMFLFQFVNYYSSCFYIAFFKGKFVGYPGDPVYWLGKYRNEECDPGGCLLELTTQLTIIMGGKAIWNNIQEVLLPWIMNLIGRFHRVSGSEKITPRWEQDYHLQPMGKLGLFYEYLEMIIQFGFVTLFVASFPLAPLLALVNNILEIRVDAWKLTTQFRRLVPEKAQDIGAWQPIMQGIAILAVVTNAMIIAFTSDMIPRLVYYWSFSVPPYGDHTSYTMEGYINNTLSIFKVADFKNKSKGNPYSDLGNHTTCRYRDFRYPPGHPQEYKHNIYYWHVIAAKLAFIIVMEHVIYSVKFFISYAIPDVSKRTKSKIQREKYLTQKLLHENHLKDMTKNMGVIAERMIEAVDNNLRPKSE

[2] = system: ATCC 29213, MRSA 434844 and S. aureus Newman; experiment: Spot test on LB agar, statements for all three strains; assay type: cell-based; settings: for bacterial load in repeated spot test, API in DMSO: only the highest concentrations (niclosamide 100 μg/mL, oxyclozanide 40 μg/mL; 200×-400× MIC of Niclo, 180× MIC Oxy)
Protocol: Following incubation, the formed colonies were counted. […] Duplicates were performed.
As both positive controls were negative further the experiment was repeated using different concentrations in a spot test using the same methodology described above.
In this experiment the negative control was the bacterial suspension only.

asthmatic mice = settings: niclosamide dissolved in corn oil, I.P. injection; cited from earlier work
SARS-CoV = settings: Vero E6 cells; read-out: EC50 of SARS-CoV replication; cited from earlier work

For `CCN(CC)CCCC(C)Nc1ccnc2cc(Cl)ccc12` (stereo not shown) [chloroquine], the EC50 (SARS-CoV-2) is listed as 1.13 µM.

With `O=C(Nc1ccc([N+](=O)[O-])cc1Cl)c1cc(Cl)ccc1O` [niclosamide] the “efficacy margin mean systemic exposure of human oral dose to IC90” value [1] was 8 fold, the Cmax (in vivo; systemic exposure Cmax (mean)) was 577 ng/mL and the Cmax (in vivo; systemic exposure Cmax (range)) was 217 to 803 ng/mL. The MIC (all targeted strains) was no more than 0.5 µg/mL, the “inhibition of Cl- channel TMEM16A” value (TMEM16A) was “potent inhibitor” and the “inhibition of Cl- channel TMEM 116F” value (TMEM 116F) was “potent inhibitor”. For the same molecule, the “bacterial load in repeated spot test, API in DMSO” value [2] was “substantially decreased the bacterial load”, the “effect in asthmatic mice” value (asthmatic mice) was “reduced mucus production and secretion, as well as bronchoconstriction” and the EC50 (SARS-CoV) was less than 0.1 µM.

For `CC(=O)Oc1ccccc1C(=O)Nc1ncc([N+](=O)[O-])s1` [nitazoxanide], the EC50 (SARS-CoV-2) is listed as 2.12 µM.

In the case of `O=C(Nc1cc(Cl)cc(Cl)c1O)c1c(O)c(Cl)cc(Cl)c1Cl` [oxyclozanide, Oxyclozanide], the “efficiency in reducing bacterial load” value ([2]; comparison among formulations) is reported as “highest efficiency in reducing bacterial load of S. aureus” and the “bacterial load in repeated spot test, API in DMSO” value [2] is reported as “substantially decreased the bacterial load”.
